According to US20150064697A1 (priority 2012, published 2015):

How the values were obtained:
[1] = biological target: DNA methyltransferase I (DNMT1) (Mus musculus, UniProt P13864); assay: Western blot of DNMT1 protein level; assay type: cell-based; conditions: both p53-WT and p53-null cells, 48 hours
[2] = tested on: SCC-VII cells; assay: RT-PCR of IFNβ1, IRF7 and CXCL10 mRNA; conditions: 10 μM 48 hours
[3] = tested on: LLC cells; assay: Dot-blot hybridization for GSAT RNA; conditions: 10 μM 48 hours
[4] = tested on: LLC cells; assay: Cell viability assay (methylene blue), cytotoxicity of 5-aza-dC; assay type: cell-based, mouse; conditions: 5 days treatment
[5] = tested on: CT26 cells; assay: as above; assay type: cell-based, mouse; conditions: 5 days treatment
[6] = tested on: primary mouse hepatocytes (quiescent); assay: Viability of quiescent primary hepatocytes (methylene blue); assay type: cell-based; conditions: p53-wt and null hepatocytes, 5 days
[7] = tested on: caspases 3 and 7 in ifnar−/− MEFs; assay: Caspase-3,7 activity assay (Ac-DEVD-AMC); conditions: 48 hours
[8] = tested on: LLC cells; assay: RT-PCR of IFNβ1, IRF7 and CXCL10 mRNA; conditions: 10 μM 48 hours
[9] = tested on: SCC-VII cells; assay: Cell viability assay (methylene blue), cytotoxicity of 5-aza-dC; assay type: cell-based, mouse; conditions: 5 days treatment
[10] = tested on: SCC-VII cells; assay: Dot-blot hybridization for GSAT RNA; conditions: 10 μM 48 hours
[11] = tested on: CT26 cells; assay: Dot-blot hybridization for GSAT RNA; conditions: CT26, 10 μM 48 hours

DNA methyltransferase I (DNMT1), sequence (P13864 whole entry): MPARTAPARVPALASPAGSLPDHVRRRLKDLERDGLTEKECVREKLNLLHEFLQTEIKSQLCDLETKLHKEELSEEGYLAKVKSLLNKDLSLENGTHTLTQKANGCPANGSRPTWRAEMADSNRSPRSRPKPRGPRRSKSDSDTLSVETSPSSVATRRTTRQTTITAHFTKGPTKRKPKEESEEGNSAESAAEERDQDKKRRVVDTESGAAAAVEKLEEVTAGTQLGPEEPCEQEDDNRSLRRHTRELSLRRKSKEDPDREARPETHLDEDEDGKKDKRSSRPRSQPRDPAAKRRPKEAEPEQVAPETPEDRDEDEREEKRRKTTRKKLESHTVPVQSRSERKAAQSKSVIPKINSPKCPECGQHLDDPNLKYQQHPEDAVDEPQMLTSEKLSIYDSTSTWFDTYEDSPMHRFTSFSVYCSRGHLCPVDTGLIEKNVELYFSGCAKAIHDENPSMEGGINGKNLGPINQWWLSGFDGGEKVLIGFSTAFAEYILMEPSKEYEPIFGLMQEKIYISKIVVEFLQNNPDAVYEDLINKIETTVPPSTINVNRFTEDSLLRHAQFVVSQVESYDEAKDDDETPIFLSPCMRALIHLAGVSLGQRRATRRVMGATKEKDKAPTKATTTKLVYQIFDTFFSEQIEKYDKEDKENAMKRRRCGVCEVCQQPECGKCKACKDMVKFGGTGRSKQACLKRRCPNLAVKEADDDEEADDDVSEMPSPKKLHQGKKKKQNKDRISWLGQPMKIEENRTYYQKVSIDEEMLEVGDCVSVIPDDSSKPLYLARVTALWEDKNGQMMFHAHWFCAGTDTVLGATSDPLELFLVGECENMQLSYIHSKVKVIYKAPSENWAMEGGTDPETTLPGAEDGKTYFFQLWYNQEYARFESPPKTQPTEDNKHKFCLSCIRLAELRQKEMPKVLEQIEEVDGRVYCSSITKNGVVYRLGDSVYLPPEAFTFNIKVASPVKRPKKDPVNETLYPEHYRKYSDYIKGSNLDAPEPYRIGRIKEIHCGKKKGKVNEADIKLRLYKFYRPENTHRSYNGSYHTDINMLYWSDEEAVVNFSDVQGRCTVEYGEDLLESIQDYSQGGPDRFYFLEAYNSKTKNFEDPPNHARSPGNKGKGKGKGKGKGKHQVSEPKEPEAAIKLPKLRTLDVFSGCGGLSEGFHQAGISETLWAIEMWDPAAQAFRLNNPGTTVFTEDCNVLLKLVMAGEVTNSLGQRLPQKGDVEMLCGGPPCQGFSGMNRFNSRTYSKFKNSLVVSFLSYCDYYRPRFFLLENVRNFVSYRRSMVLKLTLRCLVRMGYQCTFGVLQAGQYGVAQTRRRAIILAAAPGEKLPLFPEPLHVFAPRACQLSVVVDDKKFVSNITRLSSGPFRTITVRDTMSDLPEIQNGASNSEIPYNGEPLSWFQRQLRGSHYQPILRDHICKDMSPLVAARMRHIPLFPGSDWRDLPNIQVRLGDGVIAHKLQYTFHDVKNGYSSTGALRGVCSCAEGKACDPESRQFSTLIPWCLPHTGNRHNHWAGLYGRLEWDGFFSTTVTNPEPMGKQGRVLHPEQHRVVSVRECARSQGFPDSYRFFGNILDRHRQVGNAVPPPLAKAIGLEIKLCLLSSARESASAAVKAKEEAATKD

Nc1ncn([C@H]2C[C@H](O)[C@@H](CO)O2)c(=O)n1 [5-aza-dC, 5-aza-2′-deoxycytidine]
free DNMT1 protein after treatment [1]: complete depletion | mRNAs encoding IFNβ1, IRF7 and CXCL10 [2]: strong upregulation | expression of GSAT RNA upon treatment [3]: undetectable | LD50 [4]: 14 µM | LD50 [5]: 2 µM | sensitivity of quiescent cells to cultivation with 5-aza-dC [6]: resistant | caspase activation [7]: No signs of caspase activation | mRNAs encoding IFNβ1, IRF7 and CXCL10 [8]: none of these IFN response-associated transcripts was detected | LD50 [9]: 0.125 µM | expression of GSAT RNA upon treatment [10]: strong | expression of GSAT RNA upon treatment [11]: intermediate
